Measured values from patent US11850220B2 (Augusta University Research Institute, Inc., priority 2020, dated 2023).

Columns and labels:
[1] = test system: carrageenan-induced paw edema; experiment: carrageenan-induced paw edema technique (anti-inflammatory); assay type: in vivo; details: for Observed (1/property): 1/(% inhibition of edema thickness at 3 h effect); as to Observed (1/property): test concentration or dose not given here; as to Potency (% Inhibition relative to indomethacin at 3 h effect): test concentration or dose not given here
Description: Anti-inflammatory properties of the ibuprofen-amino acid conjugate (5a-j) and ibuprofen-amino acid-4-aminophenol conjugates 7a-j were studied by the standard carrageenan-induced paw edema technique (Naumov, R. N. et al., Bioorg. Med. Chem. Lett. 2015, 25, 2314-2320; Tiwari, A. D. et al., Org. Biomol. Chem. 2014, 12, 7238-7249).

animal gastric mucosa = experiment: ulcerogenic liability; assay type: in vivo; details: in vivo
[2] = test system: acetic acid-induced abdominal writhing; experiment: acetic acid-induced abdominal writhing technique (peripheral analgesic); assay type: in vivo; details: for Potency: Relative to indomethacin; for % Inhibition/protection / Writing reflex ± SEM: in vivo; as to % Inhibition/protection: test concentration or dose not given here; as to Writing reflex ± SEM: test concentration or dose not given here
hot plate = hot plate technique (central analgesic); assay type: in vivo; details: for Potency: Relative to indomethacin at 120 min.
COX-1 = COX-1 (Homo sapiens, UniProt P23219); experiment: COX-1/2 bio-assay: COX-1; assay type: biochemical; details: read-out: IC50 ± SD, COX-1
Description: (§1) Cyclooxygenases (COX) are the key enzymes capable of the conversion of arachidonic acid to prostaglandins.

COX-2 = target: T1, COX-2 (Homo sapiens, UniProt P35354); experiment: COX-1/2 bio-assay: COX-2; assay type: biochemical; details: for IC50: read-out: IC50 ± SD, COX-2; for SI(COX-2/COX-1): selectivity index COX-2/COX-1
T1 sequence (P35354 18-604): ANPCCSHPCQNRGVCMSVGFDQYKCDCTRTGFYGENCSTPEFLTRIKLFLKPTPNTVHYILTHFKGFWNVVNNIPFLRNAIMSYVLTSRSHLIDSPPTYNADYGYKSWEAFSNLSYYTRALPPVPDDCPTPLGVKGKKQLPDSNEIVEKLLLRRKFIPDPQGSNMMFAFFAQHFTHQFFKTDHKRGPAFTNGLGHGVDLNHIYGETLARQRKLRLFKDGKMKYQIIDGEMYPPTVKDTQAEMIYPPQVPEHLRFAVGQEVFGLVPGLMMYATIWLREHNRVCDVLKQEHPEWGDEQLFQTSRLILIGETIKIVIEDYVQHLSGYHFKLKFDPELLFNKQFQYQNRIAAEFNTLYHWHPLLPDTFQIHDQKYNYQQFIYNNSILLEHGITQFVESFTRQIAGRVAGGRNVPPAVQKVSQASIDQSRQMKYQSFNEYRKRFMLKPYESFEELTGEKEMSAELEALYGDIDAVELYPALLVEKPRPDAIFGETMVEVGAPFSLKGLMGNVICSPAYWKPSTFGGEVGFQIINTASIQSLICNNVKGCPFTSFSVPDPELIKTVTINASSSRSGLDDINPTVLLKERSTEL
Description: as §1

[3] = % inhibition of edema thickness at 3 h effect, Table 7
[4] = anti-inflammatory property (% inhibition of edema at 3 h), Table 8

COX-1, sequence (P23219 24-599): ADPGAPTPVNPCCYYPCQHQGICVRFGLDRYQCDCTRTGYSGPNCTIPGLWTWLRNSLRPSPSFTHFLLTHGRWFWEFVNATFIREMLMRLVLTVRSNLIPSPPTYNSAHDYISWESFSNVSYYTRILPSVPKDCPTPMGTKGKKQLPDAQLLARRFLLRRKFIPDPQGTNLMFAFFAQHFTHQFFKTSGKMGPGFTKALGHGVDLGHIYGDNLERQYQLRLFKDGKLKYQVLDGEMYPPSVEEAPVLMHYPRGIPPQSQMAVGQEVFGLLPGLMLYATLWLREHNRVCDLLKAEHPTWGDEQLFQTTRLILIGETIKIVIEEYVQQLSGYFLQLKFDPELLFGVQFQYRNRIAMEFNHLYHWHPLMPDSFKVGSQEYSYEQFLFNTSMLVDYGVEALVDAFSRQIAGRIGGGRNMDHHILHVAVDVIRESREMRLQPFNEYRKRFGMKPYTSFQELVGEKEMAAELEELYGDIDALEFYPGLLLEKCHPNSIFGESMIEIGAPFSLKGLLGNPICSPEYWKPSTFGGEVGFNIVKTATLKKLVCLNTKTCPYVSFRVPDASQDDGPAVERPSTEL

Row | Compound | Observed (1/property) ([1]; Table 7) | % inhibition of edema ([1]; 1 h) [%] | Mean edema thickness ([1]; 1 h) [mm] | % inhibition of edema ([1]; 2 h) [%] | Mean edema thickness ([1]; 2 h) [mm] | % inhibition of edema ([1]; 3 h) [%] | Mean edema thickness ([1]; 3 h) [mm] | % inhibition of edema ([1]; 4 h) [%] | Mean edema thickness ([1]; 4 h) [mm] | % inhibition of edema ([1]; 24 h) [%] | Mean edema thickness ([1]; 24 h) [mm] | Observed property [1, 3] [%] | Observed property [1, 4] [%] | Potency (% Inhibition relative to indomethacin at 3 h effect) [1] [%] | % Incidence of ulcer divided by 10 (animal gastric mucosa) | Average of ulcer number (animal gastric mucosa) | Average severity of ulcer (animal gastric mucosa) | Number of animals with ulcer (animal gastric mucosa) | Ulcer index (animal gastric mucosa) | Potency [2] | further results
1 | CC(C)Cc1ccc(C(C)C(=O)N[C@@H](CC(C)C)C(=O)Nc2ccc(O)cc2)cc1 (stereo partly drawn) [Compound 7g, (2S)-N-(4-Hydroxyphenyl)-2-(2-(4-isobutylphenyl)propanamido)-4-methylpentanamide] | 0.01333 | 30 | 0.86 ± 0.03 | 39 | 0.92 ± 0.04 | 75 | 0.33 ± 0.03 | 48 | 0.65 ± 0.03 | 37 | 0.12 ± 0.03 | 75 | 75 | 94 | 0 | 0 | 0 | 0 | 0 | 144 | % Inhibition/protection [2]: 79.1%; Writing reflex ± SEM [2]: 20.3 ± 0.9; % protection (hot plate; After 30 min.): (36.0) %; Latency period ± SEM (hot plate; After 30 min.): 3.29 ± 0.05 s; % protection (hot plate; After 60 min.): (39.0) %; Latency period ± SEM (hot plate; After 60 min.): 3.10 ± 0.01 s; % protection (hot plate; After 90 min.): (43.6) %; Latency period ± SEM (hot plate; After 90 min.): 3.16 ± 0.06 s; % protection (hot plate; After 120 min.): (79.0) %; Latency period ± SEM (hot plate; After 120 min.): 3.92 ± 0.08 s; Potency (hot plate): 140; IC50 (COX-1): 2.65 ± 0.13 µM; IC50 (COX-2): 144 ± 11.2 µM; SI(COX-2/COX-1) (COX-2): 54.3; melting point: 230.5 °C
2 | CC(C)Cc1ccc(C(C)C(=O)N[C@@H](Cc2ccccc2)C(=O)Nc2ccc(O)cc2)cc1 (stereo partly drawn) [Compound 7e, (2S)-N-(4-Hydroxyphenyl)-2-(2-(4-isobutylphenyl)propanamido)-3-phenylpropanamide] | 0.01333 | 38 | 0.76 ± 0.05 | 69 | 0.47 ± 0.03 | 75 | 0.32 ± 0.01 | 77 | 0.29 ± 0.03 | 11 | 0.17 ± 0.03 | 75 | 75 | 94 | 0 | 0 | 0 | 0 | 0 | 134 | % Inhibition/protection [2]: 73.6%; Writing reflex ± SEM [2]: 25.7 ± 1.0; % protection (hot plate; After 30 min.): (78.1) %; Latency period ± SEM (hot plate; After 30 min.): 4.31 ± 0.04 s; % protection (hot plate; After 60 min.): (104.9) %; Latency period ± SEM (hot plate; After 60 min.): 4.57 ± 0.03 s; % protection (hot plate; After 90 min.): (136.4) %; Latency period ± SEM (hot plate; After 90 min.): 5.20 ± 0.07 s; % protection (hot plate; After 120 min.): (144.3) %; Latency period ± SEM (hot plate; After 120 min.): 5.35 ± 0.03 s; Potency (hot plate): 255; IC50 (COX-1): 13.2 ± 0.65 µM; IC50 (COX-2): 69.8 ± 4.93 µM; SI(COX-2/COX-1) (COX-2): 5.3; melting point: 168.7 °C
3 | CC(C)Cc1ccc(C(C)C(=O)NCC(=O)Nc2ccc(O)cc2)cc1 (stereo not drawn) [Compound 7a, N-(2-((4-Hydroxyphenyl)amino)-2-oxoethyl)-2-(4-isobutylphenyl)propanamide] | 0.01316 | 41 | 0.73 ± 0.04 | 65 | 0.53 ± 0.03 | 76 | 0.31 ± 0.02 | 83 | 0.21 ± 0.02 | 42 | 0.11 ± 0.03 | 76 | 76 | 95 | 0 | 0 | 0 | 0 | 0 | 139 | % Inhibition/protection [2]: 76.4%; Writing reflex ± SEM [2]: 23.0 ± 0.9; % protection (hot plate; After 30 min.): (97.1) %; Latency period ± SEM (hot plate; After 30 min.): 4.77 ± 0.07 s; % protection (hot plate; After 60 min.): (94.6) %; Latency period ± SEM (hot plate; After 60 min.): 4.34 ± 0.04 s; % protection (hot plate; After 90 min.): (86.4) %; Latency period ± SEM (hot plate; After 90 min.): 4.10 ± 0.02 s; % protection (hot plate; After 120 min.): (81.7) %; Latency period ± SEM (hot plate; After 120 min.): 3.98 ± 0.11 s; Potency (hot plate): 144; IC50 (COX-1): 2.7 ± 0.13 µM; IC50 (COX-2): 78.3 ± 5.54 µM; SI(COX-2/COX-1) (COX-2): 29.0; melting point: 175.9 °C
4 | CC[C@H](C)[C@@H](NC(=O)C(C)c1ccc(CC(C)C)cc1)C(=O)Nc1ccc(O)cc1 (stereo partly drawn) [Compound 7f] | 0.01111 | 42 | 0.71 ± 0.01 | 48 | 0.79 ± 0.04 | 90 | 0.13 ± 0.02 | 16 | 1.05 ± 0.05 | 42 | 0.11 ± 0.02 | 90 | 90 | 113 | 0 | 0 | 0 | 0 | 0 | 155 | % Inhibition/protection [2]: 85.3%; Writing reflex ± SEM [2]: 14.3 ± 0.8; % protection (hot plate; After 30 min.): (64.5) %; Latency period ± SEM (hot plate; After 30 min.): 3.98 ± 0.06 s; % protection (hot plate; After 60 min.): (74.0) %; Latency period ± SEM (hot plate; After 60 min.): 3.88 ± 0.02 s; % protection (hot plate; After 90 min.): (76.4) %; Latency period ± SEM (hot plate; After 90 min.): 3.88 ± 0.04 s; % protection (hot plate; After 120 min.): (164.4) %; Latency period ± SEM (hot plate; After 120 min.): 5.79 ± 0.04 s; Potency (hot plate): 290; potency, central analgesic properties (hot plate; in vivo): 2.9 folds of indomethacin; IC50 (COX-1): 4.86 ± 0.24 µM; IC50 (COX-2): 141 ± 11.1 µM; SI(COX-2/COX-1) (COX-2): 29.0; melting point: 205 °C
